Test results from patent US11643636B2, “Method of creating human pluripotent stem cell derived brain pericyte-like cells” (Wisconsin Alumni Research Foundation, priority 2018, dated 2023).

System: hPSCs (H9 hESCs, IMR90C4 and CS03n2 iPSCs)
Test: Differentiation of hPSCs to NCSCs (p75-NGFR/HNK1 immunocytochemistry, flow cytometry)
Type: cell-based, human
Conditions: CHIR99021 increased to 2 μM in E6-CSF, 15 days
Experimental: We first assessed the capability of E6, a reduced factor medium, to support differentiation of H9 human embryonic stem cells (hESCs) and IMR90C4 and CS03n2 induced pluripotent stem cells (iPSCs) to NCSCs. H9 hESCs were cultured for 15 days in E6 medium supplemented with heparin and pathway modulators previously implicated in hPSC differentiation to NCSCs (48): 1 μM CHIR99021, a GSK3β inhibitor to promote WNT signaling; 10 μM SB431543, an ALK5 antagonist to inhibit Activin/Nodal/TGFβ signaling; and 10 ng/mL FGF2 (E6-CSF).
To examine the effects of BMP inhibition on hPSC differentiation to NCSCs in minimal medium, E6-CSF medium was supplemented with 1 μM dorsomorphin, a BMP type I receptor inhibitor, to generate E6-CSFD.
One day prior to initiating NCSC differentiation, hPSCs maintained in E8 medium were singularized using Accutase and seeded at 9.1×10^4 cells/cm^2 onto Matrigel coated plates with E8+10 μM Y27632. […]
Cells were fixed fifteen minutes at room temperature with either 4% paraformaldehyde (PFA) or 100% ice-cold methanol depending on antibody staining conditions. Cells were rinsed three times in PBS without Ca^2+/Mg^2+ and stored at 4° C. in PBS until ready to stain. […]

## Cc1c[nH]c(-c2cnc(NCCNc3ccc(C#N)cn3)nc2-c2ccc(Cl)cc2Cl)n1 [CHIR99021]
  induction of p75-NGFR expression: did not aid in inducing p75-NGFR expression
